Where “and” joins values, the source holds several entries; their conditions need not be identical. Identical values can stand only once. *1 amine or outer side, *2 acyl side, *3 side chain or, on linkers, in order; H or OH if unused. Where a SMILES comes first, the peptide text is derived from it. Bridges are numbered along the chain shown (N, C = ends). [ ]: non-standard residue; d: D form. The star is where a group is joined. ξ: configuration not given here. ξThr(3R)(O-yl) = C[C@@H](O[*:3])C(N[*:1])C(=O)[*:2]; βAsp = O=C(O)[C@H](CC(=O)[*:2])N[*:1]; His(π-Me) = Cn1cncc1C[C@H](N)C(=O)O; For = O=C*

The text below walks through data of US20240287139A1, “A NOVEL COMPOUND ACTING AGAINST A SELECT GROUP OF BACTERIA” (priority 2021, published 2024).

In assay [1] the test system is MtbGyrase GyrA mutants. The format is biochemical, M. tuberculosis.
Assay [2] has as its system M. tuberculosis GyrA D94N mutant. The format is cell-based.
For assay [3], the system named is M. tuberculosis H37Rv mc^26020.
The subject of assay [4] is M. tuberculosis bacA mutants (L469P, L470P and S577R; bacA deletion mutant). The class given is cell-based.

Consider `C[C@H]1OC(=O)C[C@@H](C(=O)O)NC(=O)[C@H](CO)NC(=O)[C@@H](CCCNC(=N)N)NC(=O)CNC(=O)[C@H](Cc2ccccc2)NC(=O)[C@@H](CO)NC(=O)C[C@@H](C(=O)O)NC(=O)[C@H](Cc2cncn2C)NC(=O)C1NC(=O)[C@@H](CCCNC(=N)N)NC(=O)[C@@H](NC(=O)[C@H](Cc1c[nH]c2ccccc12)NC=O)[C@@H](C)O` (stereo partly drawn) [compound of Formula IV] (For-WT[dR][ξThr(3R)(O-yl)][His(π-Me)][βAsp][dS]FG[dR]SD-OH; ester 4-12), for which, in assay [1], the “drug-induced cleavage with MtbGyrAP353L and MtbGyrAA32V” value is “relatively strong resistance”; the “reduced cleavage compared to wildtype MtbGyrase” value is 5 to 100 fold. Also, the minimum inhibitory concentration (MIC) in assay [2] came out at 0.25 µg/mL. In assay [3], the “frequency of highly resistant mutants” value is listed as 6.1×10^−9 to 1.7×10^−8 and the “frequency of resistant mutants” value is given as 7.2×10^−6 to 1.6×10^−5. Moreover, in assay [4], the “MIC against bacA mutants” value was 8 to 16 µg/mL and 8 µg/mL; the “MIC against bacA mutants as multiple of wild-type MIC” value is 32-64 ×MIC and 32 ×MIC.

The MIC is the least concentration at which growth counts as inhibited. High values mean a less susceptible organism, low ones a more susceptible organism.
